Where a SMILES comes first, the peptide text is derived from it.

As usually defined, the logP is a log measure of how a compound divides between an organic and an aqueous phase. Higher therefore signals higher lipophilicity.

`CC(Nc1ccc([N+](=O)[O-])cc1[N+](=O)[O-])C(=O)O` (stereo not given) gave a logP of 2.09. The figure for `C=CCN(N=O)C(=O)N(CCCC(NC(C)=O)C(=O)NCc1ccccc1)Cc1ccccc1` (stereo not given) is 2.16; for `NC(Cc1ccccc1)C(=O)NC(Cc1ccccc1)C(=O)NC(Cc1ccccc1)C(=O)NC(Cc1ccccc1)C(=O)O` (stereo not given) (H-FFFF-OH; configuration not given here) it is 1.63. As to `CN1CCN(CCCOn2nnc3ccccc32)CC1`, the logP came out at 1.3. The result for `Cc1c2oc(=O)ccc2c(C)c2c(C)coc12` reads 3.35.

In the case of `Brc1ccc2ccc3ccc(Br)c4ccc1c2c34`, the logP came out at 6.73. The figure for `Cc1cc2c(s1)Nc1ccccc1N=C2N1CCN(C)CC1` is 3; for `C[C@@H]1CN(c2c(F)c(N)c3c(=O)c(C(=O)O)cn(C4CC4)c3c2F)C[C@H](C)N1` it is -0.02.

Turning to `Clc1ccc(Cl)c2c1oc1c(Cl)ccc(Cl)c12`, the logP is 5.6.

With `O=C1c2ccccc2-c2nncc(-c3ccccc3)c21`, the logP was determined as 2.8. `CCOC(=O)c1cccc(CN)c1` displayed a logP of 1.44. The figure for `CCCCOc1ccccc1NC(=O)OCCN1CCCCC1` is 4.79; for `C[C@@H]1C[C@H]2[C@@H]3CCC4=CC(=O)C=C[C@]4(C)[C@@]3(Cl)[C@@H](O)C[C@]2(C)[C@@]1(OC(=O)c1ccco1)C(=O)CCl` it is 3.9. Consider `Cc1ccc(C(=O)O)cc1[N+](=O)[O-]`, for which the logP amounted to 2.35.

Compound `CCOCCOCCOC1CCC(NC(=O)NC23CC4CC(CC(C4)C2)C3)CC1` (stereo not given) came in with a logP of 2.9. The result for `NC(=O)c1[nH]cc(-c2ccc(Cl)cc2)c1N1CCOCC1` reads 2.4; that for `Cc1cc2oc(=O)cc(C)c2c2occc12`, 2.84; that for `CCCCCCCCNC(=O)N1C(=O)N(C)CC1O` (stereo not given), 3.46. `CCN(CC)CCC(=O)Nc1ccccc1` gave a logP of 2.31.

The compound `Nc1nnnn1-c1ccc2ccccc2c1` came in with a logP of 2.08.

Compound `CSCC(NC(C)=O)C(N)=O` (stereo not given) gave a logP of -0.6. The figure for `COCC(O)CN(C(C)=O)c1c(I)c(C(=O)NCC(O)CO)c(I)c(C(=O)NCC(O)CO)c1I` (stereo not given) is -2.42; for `COC(=O)C(C)NP(=O)(OCC1C=CC(n2cc(C)c(=O)[nH]c2=O)O1)Oc1ccc(OC(F)(F)F)cc1` (stereo not given) it is 1.86; for `CCCCC(=O)NCCCCCN(O)C(=O)CCC(=O)NCCCCCN(O)C(=O)CCC(=O)NCCCCCN(O)C(C)=O` it is 0.88.

`c1ccc(N2CCN(CCCOn3nnc4ccccc43)CC2)cc1` displayed a logP of 3.49. The result for `CCCNC(=O)c1[nH]cc(-c2ccc(Cl)cc2)c1N1CCOCC1` reads 4.2; that for `Cc1cc2c(C)c3ccc(=O)oc3cc2o1`, 2.84; that for `CNC(Cc1ccccc1)C(=O)N1CCCC1C(=O)NCC1CCC(N)CC1` (stereo not given), 1.12. As for `O=C(O)CCCCCON=C(c1ccnnc1)c1cccc(C(F)(F)F)c1`, the logP was 3.38. The result for `O=C1C=C(N2CCOCC2)C(=O)N1c1ccc(F)cc1` reads 1.5. `COc1ccc(C2Cc3c(ccc(Br)c3OC)N(CCN(C)C)C(=O)C2OC(C)=O)cc1` (stereo not given) gave a lipophilicity (logP) of 4.4. The figure for `O=c1cc(-c2ccccc2Cl)oc2ccc(Cl)cc12` is 4.09; for `CC(=O)OCC1OC(n2ccc(=O)[nH]c2=O)C(OC(C)=O)C1OC(C)=O` (stereo not given) it is -0.36; for `CCCCCCCCNCCO` it is 2.75. The compound `N=C1C=CC(=C(c2ccc(N)cc2)c2ccc(N)cc2)C=C1` showed a logP of -0.21. The result for `CCOP(=O)(OCC)C(C)(C)[N+]([O-])=Cc1cccnc1` reads 0.41; that for `Clc1cc(Oc2ccccc2)c(Cl)c(Cl)c1Cl`, 6.31; that for `Cc1ccc(CO)c(C=NNC(=O)c2ccc(C(C)(C)C)cc2)c1O`, 4.73. In turn, `O=c1nc(Nc2ccccc2)[nH]c2c1ncn2CCCCO` returned a logP of 1.26. On to `COc1ccc(C2Cc3c(OC)cccc3N(CCN(C)C)C(=O)C2C)cc1` (stereo not given), for which the logP amounted to 4.6. The result for `CCN(CC)CC(=O)NCC(=O)Nc1c(C)cccc1C` reads 2.2.

In turn, `CC(C)Nc1[nH]cnc2ncnc1-2` returned a lipophilicity (logP) of 1.38. The figure for `Cc1nc2ccccc2c(=O)n1CC(=O)NCc1ccco1` is 1.24; for `Cc1c(O)c(=O)ccn1CCCO` it is -0.88. The result for `CC(=O)OC(C)(C)C1CCC2(C)CCCC3(CO3)C2C1` (stereo not given) reads 4.08.

On to `CSCCC(NC(=O)C(N)Cc1ccccc1)C(=O)O` (stereo not drawn) (H-Phe-Met-OH; configuration not given here), for which the logP was -1.59. In turn, `O=C1c2c(O)cccc2C(=CNc2ccccc2)c2cccc(O)c21` showed a logP of 4.96. The result for `CC1(C)C2CCC(CO)C1C2` (stereo not given) reads 3.41. The figure for `C=CC1(C)C=C2CCC3C(C)(CO)CCCC3(C)C2CC1` (stereo not given) is 6.85; for `Nc1ccn(C2CC(CO)C(O)C2O)c(=O)n1` (stereo not given) it is -2.41; for `O=[N+]([O-])c1ccc2c(c1)-c1ccccc1C2` it is 3.99.

In the case of `CCCCCCNCc1ccc(C)cc1`, the logP is 4.96. The figure for `Cc1coc2c(C)c3oc(=O)ccc3cc12` is 2.81; for `CC(C)N(CCC(C(N)=O)c1ccccc1Cl)C(C)C` (stereo not given) it is 2.83. The figure for `CCOc1ccccc1NC(=O)OC1C(CN(CC)CC)C2CCC1(C)C2(C)C` (stereo not given) is 5.8; for `O=C(NC1CCCCCC1)NS(=O)(=O)c1cnccc1NC1CCCCC1` it is 4.62. The result for `Cc1ccc(OCC2CN=C(N)O2)cc1C` (stereo not given) reads 2.1; that for `Cc1cc2c(ccc3c(C)cc(=O)n(C)c32)o1`, 3.08. Turning to `Fc1ccc(CNc2[nH]cnc3ncnc2-3)cc1`, the logP amounted to 2.34. The result for `Cc1ccc(CO)c(C=NNC(=O)c2ccc(O)cc2)c1O` reads 2.56; that for `O=C(O)CCCCON=C(c1cncnc1)c1cccc(C(F)(F)F)c1`, 3.26. The figure for `Cc1cc(=O)[nH]c2c1cc(C)c1occ(C)c12` is 3.13; for `Cc1nc2c3c(c(C(=O)N4CC(O)C4)cn2c1C)CCC(c1ccccc1)O3` (stereo not given) it is 3.1; for `CON=C(C(=O)NC1C(=O)N2C(C(C)OC(=O)OC(C)C)=CCSC12)c1csc(N)n1` (stereo not given) it is 1.37.

`O=C(O)CCCCON=C(c1cccc(C(F)(F)F)c1)c1cnccn1`: the logP came out at 3.26.

Turning to `N[C@@H](Cc1c[nH]c2ccccc12)C(=O)N[C@@H](Cc1c[nH]c2ccccc12)C(=O)O` (H-Trp-Trp-OH), the logP is -0.27. The result for `CCCC(=O)c1ccncc1` reads 1.4. Compound `COc1ccc(C2Cc3cc(OC(F)F)ccc3N(CCN(C)C)C(=O)C2OC(C)=O)cc1` (stereo not given) came in with a logP of 3.8. The figure for `CC(C)NCC(O)CN1C(=O)COc2ccccc21` (stereo not given) is 1.45. The result for `O=C(O)c1ccccc1NC(=O)c1c(O)cccc1O` reads 3.52. The figure for `CCOc1cccc(COC(=O)C2C(C=C(C)C(=O)OC)C2(C)C)c1` (stereo not given) is 4.78. Regarding `CC(C)NCC(O)COc1ccc(-c2nc(C(C)C)c[nH]2)cc1` (stereo not given), the logP was determined as 2.95. The result for `Cc1nc2ccccc2c(=O)n1CC(=O)N1CCCCC1` reads 1.27; that for `CC(NC(=O)C(Cc1ccccc1)NC(=O)C(N)Cc1c[nH]c2ccccc12)C(=O)O` (stereo not drawn) (H-Trp-Phe-Ala-OH; configuration not given here), -1; that for `COC1C(O)CC(=O)OC(C)CC=CC=CC(=O)C(C)CC(CC=O)C1OC1OC(C)C(OC2CC(C)(O)C(OC(=O)CC(C)C)C(C)O2)C(N(C)C)C1O` (stereo not given), 1.86. Take `Cc1cccc(N2CC(N3CCOCC3)=CC2=O)c1`: the logP turned out to be 1.5.

In turn, `COc1cc(OC)nc(Sc2cccc(Oc3ccccc3)c2C(=O)O)n1` showed a logP of 4.15.

Take `CC(C)Nc1ncnc2c1ncn2C1OC(CO)C(O)C1O` (stereo not given): the logP turned out to be 0.48. The figure for `COc1ccc(CCNCC(O)COc2ccc(-c3nc(Br)c[nH]3)cc2)cc1OC` (stereo not given) is 3.2; for `COC(=O)c1c(N2CCOCC2)c(-c2ccc(Cl)cc2)cn1C(=O)c1ccccc1` it is 5.5.

For `CCC(C)(C)c1ccc(OCC2CN=C(N)O2)cc1` (stereo not given), the logP came out at 3.69.

For the compound `Cc1ccc(OCC(O)C(C)NC(C)C)c2c1CCC2` (stereo not given), the logP was determined as 3.19. Compound `CC1=CCC(C)(C)C=CCC2(C)OC2CC1` (stereo not given) showed a logP of 4.45. The result for `c1cc2cc3ccc4c(c3nc2c2c1NCOC2)COCN4` reads 2.17; that for `CC1OC(OC2C(C)OC(OC3C(C)OC(OC4CCC5(C)C(CCC6C5CCC5(C)C(C7=CC(=O)OC7)C(OC=O)CC65O)C4)CC3OC=O)CC2OC=O)CC(OC=O)C1OC=O` (stereo not given), 3.16.

In turn, `Cc1ccccc1N1CCN(CC2CN=C(N)O2)CC1` (stereo not given) returned a logP of 1.78. The figure for `CC1(C(=O)O)CSC(c2ccc(O)cc2O)=N1` (stereo not given) is 1.3; for `CCN(CC)c1nc(N)nc(Cl)n1` it is 2.14; for `COC(=O)C(C)NP(=O)(OCC1C=CC(n2cc(C)c(=O)[nH]c2=O)O1)Oc1ccc(C)cc1` (stereo not given) it is 1.19.

On to `Clc1cc(Cl)c2c(c1)Oc1c(ccc(Cl)c1Cl)O2`, for which the logP is 6.43.

In turn, `CC(=NNC(=O)c1ccccc1)c1cnccn1` registered a logP of 1.9. The result for `Cc1c(C)c2ccc3occc3c2oc1=O` reads 2.9; that for `Nc1n[n+]([O-])c2ccccc2[n+]1[O-]`, -0.3. The result for `Cc1cccc(C=[N+]([O-])C(C)(C)C)c1` reads 1.6; that for `CCCOC(=O)C=COc1ccccc1`, 3.72; that for `COc1ccc(O)c(C2=NC(C)(C(=O)O)CS2)c1` (stereo not given), 1.8.

On to `COc1ccccc1N1CCN(c2ccc(Nn3c(C)ccc3C)nn2)CC1`, for which the logP amounted to 3.61. The figure for `Cc1ccccc1Nc1ccncc1S(=O)(=O)NC(=NC#N)NC(C)C` is 1.67; for `CN1CCCNCC1` it is -0.4. The figure for `NC(=O)C(CCN1CCCCC1)c1ccccc1Cl` (stereo not given) is 2.46; for `CC1NCCc2c1[nH]c1ccc([N+](=O)[O-])cc21` (stereo not given) it is 2.07; for `NC(=S)NN=C(c1cccc([N+](=O)[O-])c1)c1ccccn1` it is 1.9. The figure for `Cc1ccc(S(=O)(=O)C(=Cc2ccccc2)C(=O)OC(C)C)cc1` is 3.92; for `COc1ccc(CCNCC(O)CON=C(C2CC2)C2CC2)cc1OC` (stereo not given) it is 2.42; for `O=C(O)CCCON=C(c1ccccc1)c1ccncn1` it is 1.95.

Values taken from the OPERA property sets (Mansouri et al. 2018).
